PubChem BioAssay AID1919016 (Molecular Pharmacology Branch, DTP, NCI, 2023)

Tested on: NCI-H196 complex spheroid growth, percent test/control
Assay: Anticancer human tumor NCI-H196 cell line growth inhibition [AhR];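 note: seven days of drug exposure starting three days after plating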;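 for viability, T/C: 100% = DMSO vehicle control wells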
Conditions: for IC50: curve of first compound; for viability, T/C: stronger effect = lower value; active = viability on the fitted dose curve at most 10% of control; inactive = the rest
Method in brief: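 Spheroids combined tumor cells with HUVEC endothelial cells and human MSCs as stroma. AhR antagonists were paired with standard or investigational drugs, each dosed in half-log steps down from near clinical Cmax, or from 10 microM where Cmax was unknown.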

[1] = second compound 0.1 µM, first compound 0.000949 µM
[2] = second compound 0.1 µM, first compound 0.003 µM
[3] = second compound 0.1 µM, first compound 0.00949 µM
[4] = second compound 0.1 µM, first compound 0.03 µM
[5] = second compound 0.1 µM, first compound 0.0949 µM
[6] = second compound 0.1 µM, first compound 0.3 µM
[7] = second compound 0.316 µM, first compound 0.000949 µM
[8] = second compound 0.316 µM, first compound 0.003 µM
[9] = second compound 0.316 µM, first compound 0.00949 µM
[10] = second compound 0.316 µM, first compound 0.03 µM
[11] = second compound 0.316 µM, first compound 0.0949 µM
[12] = second compound 0.316 µM, first compound 0.3 µM
[13] = second compound 1 µM, first compound 0.000949 µM
[14] = second compound 1 µM, first compound 0.003 µM
[15] = second compound 1 µM, first compound 0.00949 µM
[16] = second compound 1 µM, first compound 0.03 µM
[17] = second compound 1 µM, first compound 0.0949 µM
[18] = second compound 1 µM, first compound 0.3 µM
[19] = second compound 3.16 µM, first compound 0.000949 µM
[20] = second compound 3.16 µM, first compound 0.003 µM
[21] = second compound 3.16 µM, first compound 0.00949 µM
[22] = second compound 3.16 µM, first compound 0.03 µM
[23] = second compound 3.16 µM, first compound 0.0949 µM
[24] = second compound 3.16 µM, first compound 0.3 µM
[25] = second compound 10 µM, first compound 0.000949 µM
[26] = second compound 10 µM, first compound 0.003 µM
[27] = second compound 10 µM, first compound 0.00949 µM
[28] = second compound 10 µM, first compound 0.03 µM
[29] = second compound 10 µM, first compound 0.0949 µM
[30] = second compound 10 µM, first compound 0.3 µM
[31] = second compound 0.1 µM, first compound 0.0316 µM
[32] = second compound 0.1 µM, first compound 0.1 µM
[33] = second compound 0.1 µM, first compound 0.316 µM
[34] = second compound 0.1 µM, first compound 1 µM
[35] = second compound 0.1 µM, first compound 3.16 µM
[36] = second compound 0.1 µM, first compound 10 µM
[37] = second compound 0.316 µM, first compound 0.0316 µM
[38] = second compound 0.316 µM, first compound 0.1 µM
[39] = second compound 0.316 µM, first compound 0.316 µM
[40] = second compound 0.316 µM, first compound 1 µM
[41] = second compound 0.316 µM, first compound 3.16 µM
[42] = second compound 0.316 µM, first compound 10 µM
[43] = second compound 1 µM, first compound 0.0316 µM
[44] = second compound 1 µM, first compound 0.1 µM
[45] = second compound 1 µM, first compound 0.316 µM
[46] = second compound 1 µM, first compound 1 µM
[47] = second compound 1 µM, first compound 3.16 µM
[48] = second compound 1 µM, first compound 10 µM
[49] = second compound 3.16 µM, first compound 0.0316 µM
[50] = second compound 3.16 µM, first compound 0.1 µM
[51] = second compound 3.16 µM, first compound 0.316 µM
[52] = second compound 3.16 µM, first compound 1 µM
[53] = second compound 3.16 µM, first compound 3.16 µM
[54] = second compound 3.16 µM, first compound 10 µM
[55] = second compound 10 µM, first compound 0.0316 µM
[56] = second compound 10 µM, first compound 0.1 µM
[57] = second compound 10 µM, first compound 0.316 µM
[58] = second compound 10 µM, first compound 1 µM
[59] = second compound 10 µM, first compound 3.16 µM
[60] = second compound 10 µM, first compound 10 µM

CC(C)CC(NC(=O)C(Cc1ccccc1)NC(=O)c1cnccn1)B(O)O (stereo not given) + CC(CO)NC(=O)c1cc(-c2ccc(Cl)cc2)nn(-c2cnn(C)c2)c1=O
8.07 nM: IC50 (second compound 0.316 µM)
7.64 nM: IC50 (second compound 0.1 µM)
8.7 nM: IC50 (second compound 1 µM)
inactive: viability, T/C [1] 108% | viability, T/C [2] 106% | viability, T/C [3] 37% | viability, T/C [7] 106% | viability, T/C [8] 101% | viability, T/C [9] 41.8% | viability, T/C [13] 109% | viability, T/C [14] 103% | viability, T/C [15] 45.8% | viability, T/C [19] 118% | viability, T/C [20] 113% | viability, T/C [21] 54.9% | viability, T/C [25] 112% | viability, T/C [26] 116% | viability, T/C [27] 45.1%
8.75 nM: IC50 (second compound 10 µM)
10.6 nM: IC50 (second compound 3.16 µM)
active: viability, T/C [4] 3.54% | viability, T/C [5] 2.43% | viability, T/C [6] 2.49% | viability, T/C [10] 2.17% | viability, T/C [11] 2.62% | viability, T/C [12] 1.45% | viability, T/C [16] 3.07% | viability, T/C [17] 1.88% | viability, T/C [18] 2.1% | viability, T/C [22] 3.25% | viability, T/C [23] 1.7% | viability, T/C [24] 1.74% | viability, T/C [28] 2.87% | viability, T/C [29] 2.23% | viability, T/C [30] 2.03%

CCc1c2c(nc3ccc(O)cc13)-c1cc3c(c(=O)n1C2)COC(=O)[C@]3(O)CC + CC(CO)NC(=O)c1cc(-c2ccc(Cl)cc2)nn(-c2cnn(C)c2)c1=O
> 300 nM: IC50 (second compound 0.1 µM) | IC50 (second compound 0.316 µM) | IC50 (second compound 1 µM) | IC50 (second compound 3.16 µM) | IC50 (second compound 10 µM)
inactive: viability, T/C [1] 98% | viability, T/C [2] 104% | viability, T/C [3] 107% | viability, T/C [4] 105% | viability, T/C [5] 103% | viability, T/C [6] 92.9% | viability, T/C [7] 108% | viability, T/C [8] 116% | viability, T/C [9] 113% | viability, T/C [10] 113% | viability, T/C [11] 108% | viability, T/C [12] 92.2% | viability, T/C [13] 108% | viability, T/C [14] 115% | viability, T/C [15] 117% | viability, T/C [16] 98.4% | viability, T/C [17] 101% | viability, T/C [18] 81.8% | viability, T/C [19] 112% | viability, T/C [20] 110% | viability, T/C [21] 105% | viability, T/C [22] 104% | viability, T/C [23] 101% | viability, T/C [24] 85.3% | viability, T/C [25] 111% | viability, T/C [26] 111% | viability, T/C [27] 112% | viability, T/C [28] 107% | viability, T/C [29] 107% | viability, T/C [30] 87.7%

Nc1ccccc1NC(=O)c1ccc(CNC(=O)OCc2cccnc2)cc1 + CC(CO)NC(=O)c1cc(-c2ccc(Cl)cc2)nn(-c2cnn(C)c2)c1=O
inactive: viability, T/C [31] 80.5% | viability, T/C [32] 81.1% | viability, T/C [33] 62.6% | viability, T/C [34] 29.9% | viability, T/C [35] 15.4% | viability, T/C [37] 87.5% | viability, T/C [38] 81.5% | viability, T/C [39] 61.6% | viability, T/C [40] 33.7% | viability, T/C [41] 12.8% | viability, T/C [43] 87.9% | viability, T/C [44] 79.3% | viability, T/C [45] 63.2% | viability, T/C [46] 32.9% | viability, T/C [47] 14.5% | viability, T/C [49] 85.6% | viability, T/C [50] 89.4% | viability, T/C [51] 65.3% | viability, T/C [52] 34.7% | viability, T/C [53] 15.3% | viability, T/C [55] 91.7% | viability, T/C [56] 87.5% | viability, T/C [57] 74.1% | viability, T/C [58] 29.2%
596 nM: IC50 (second compound 3.16 µM)
509 nM: IC50 (second compound 0.1 µM)
523 nM: IC50 (second compound 1 µM)
519 nM: IC50 (second compound 0.316 µM)
active: viability, T/C [36] 0.46% | viability, T/C [42] 0.5% | viability, T/C [48] 0.63% | viability, T/C [54] 0.42% | viability, T/C [59] 12.9% | viability, T/C [60] 0.86%
593 nM: IC50 (second compound 10 µM)

O=C(c1cc(Cc2n[nH]c(=O)c3ccccc23)ccc1F)N1CCN(C(=O)C2CC2)CC1 + CC(CO)NC(=O)c1cc(-c2ccc(Cl)cc2)nn(-c2cnn(C)c2)c1=O
> 10000 nM: IC50 (second compound 0.1 µM) | IC50 (second compound 0.316 µM) | IC50 (second compound 1 µM) | IC50 (second compound 3.16 µM) | IC50 (second compound 10 µM)
inactive: viability, T/C [31] 109% | viability, T/C [32] 114% | viability, T/C [33] 99.8% | viability, T/C [34] 93.3% | viability, T/C [35] 106% | viability, T/C [36] 96.3% | viability, T/C [37] 103% | viability, T/C [38] 109% | viability, T/C [39] 103% | viability, T/C [40] 102% | viability, T/C [41] 105% | viability, T/C [42] 96.8% | viability, T/C [43] 105% | viability, T/C [44] 102% | viability, T/C [45] 99.7% | viability, T/C [46] 102% | viability, T/C [47] 102% | viability, T/C [48] 98.7% | viability, T/C [49] 101% | viability, T/C [50] 103% | viability, T/C [51] 107% | viability, T/C [52] 98.9% | viability, T/C [53] 109% | viability, T/C [54] 94.9% | viability, T/C [55] 113% | viability, T/C [56] 103% | viability, T/C [57] 109% | viability, T/C [58] 109% | viability, T/C [59] 109% | viability, T/C [60] 102%
